Measurements: patent EP4653001A1, “TREATMENT, DIAGNOSIS AND/OR PROGNOSIS OF MITOCHONDRIAL DISEASES” (Universidad Autónoma de Madrid, priority 2024, dated 2025)

Assays:
143B cells = test: Time-course cell proliferation / survival of 143B cells; type: cell-based; conditions: 143B cells under combined Piericidin and G6PDi, supplemented
Protocol: All cell lines, 143b, HeLa, U2OS, and transmitochondrial cybrids carrying mutation in CI (ND2), CIII (CytB) or CIV (Cox2) subunits, were maintained in DMEM high glucose (HyClone), 10% FBS and 1% P/S at 37°C with 5% CO2. Mitochondrial mutant cells were cultured with supplementation of 50 µg/mL uridine. The selected cancer cell lines with different levels of malic enzyme (HCC15, KYSE410, CAKI1, J82, MDAMB453, Colo320, NCIH1703) were obtained from the DSMZ-German Collection of Microorganisms and Cell Cultures GmbH and cultured in the same DMEM 10% FBS medium. OCI-Lys3 and RCH-ACV cell lines (cells in suspension), were obtained from the same repository and cultured in RPMI 10% FBS medium. Transfections for gain- and loss-of-function studies were performed according to the manufacturer's instructions using the polyfect reagent (Qiagen, 301107). […] Subsequently, cells were trypsinized and quantified using a hemocytometer (NanoEnTek, DHC-N01). Cell viability was quantified using propidium iodide (PI; 50 µg/ml) staining.
Next, we conducted time-course experiments to gain further knowledge on the metabolic determinants underlying the observed synthetic lethality between PPP and OXPHOS. 143B cells were treated either with Piericidin or G6PDi (selective inhibitor of G6PD) alone or the combination of both and cell proliferation was quantified over the course of 96 h. […]

143B cell lines = test: Cell viability of CRISPR knock-out 143B cell lines treated with ETC inhibitors; type: cell-based
Protocol: All cell lines, 143b, HeLa, U2OS, and transmitochondrial cybrids carrying mutation in CI (ND2), CIII (CytB) or CIV (Cox2) subunits, were maintained in DMEM high glucose (HyClone), 10% FBS and 1% P/S at 37°C with 5% CO2. Mitochondrial mutant cells were cultured with supplementation of 50 µg/mL uridine. The selected cancer cell lines with different levels of malic enzyme (HCC15, KYSE410, CAKI1, J82, MDAMB453, Colo320, NCIH1703) were obtained from the DSMZ-German Collection of Microorganisms and Cell Cultures GmbH and cultured in the same DMEM 10% FBS medium. OCI-Lys3 and RCH-ACV cell lines (cells in suspension), were obtained from the same repository and cultured in RPMI 10% FBS medium. Transfections for gain- and loss-of-function studies were performed according to the manufacturer's instructions using the polyfect reagent (Qiagen, 301107). For cell number and proliferation experiments, cells were seeded in 12 or 6-well plates and allowed to proliferate for the specified durations. Subsequently, cells were trypsinized and quantified using a hemocytometer (NanoEnTek, DHC-N01). Cell viability was quantified using propidium iodide (PI; 50 µg/ml) staining.
Generation of knockout cell lines using CRISPR-Cas9 technology was performed with the lenti-CRISPR v2 vector (Addgene #52961). Guide sequences are: • sgGFPT1, 5-[…]-3 (SEQ ID NO: 1); • sgG6PD, 5-[…]-3 (SEQ ID NO: 2); • sgPHGDH, 5-[…]-3 (SEQ ID NO: 3); • sgMPC1, 5-[…]-3 (SEQ ID NO: 4) • sgPC, 5-CAGGCCCGGAACACACGGA-3 (SEQ ID NO: 5); • sgACLY, 5-[…]-3 (SEQ ID NO: 6); • sgME1, 5-[…]-3 (SEQ ID NO: 7).
To investigate glucose-dependent alternative metabolic pathways that become essential upon ETC inhibition, we generated through CRISPR/Cas9 technology, knock-out (KO) 143B cell lines for each of the following rate-limiting enzymes and transporters. We selected glucose 6 phosphate dehydrogenase (G6PD) for the PPP, Glutamine-Fructose-6-Phosphate Transaminase 1 (GFPT1) for the hexosamine pathway, Phosphoglycerate Dehydrogenase (PHGDH) for the serine biosynthesis pathway and Mitochondrial Pyruvate Carrier 1 (MPC1) to prevent pyruvate entry into the mitochondria. These KO and Control cells were treated with two specific ETC inhibitors (Piericidin A that targets Complex I and Antimycin A that targets Complex III) and cell viability was assessed after 3 days of treatment. […] We took advantage of the fruit fly Drosophila melanogaster model, as it is cost- and time-efficient and recapitulate a wide range of phenotypes seen in patients with metabolic and mitochondrial disorders. We obtained flies carrying mutations in Zw and Pgd genes (named: Pgd^39 Zw^lo2a), corresponding to human orthologs G6PD and 6PGD respectively. […]

Colo320 cells = test: Colo320 xenograft tumor growth; type: in vivo, NMRI-Foxn1^nu/nu mice
Protocol: Xenografts experiments were carried out in 4 weeks old female NMRI-Foxn1^nu/nu mice that were subcutaneously injected with Colo320 cells. For each tumor, 2 million cells were resuspended in Matrigel Matrix: PBS solution (1:1) (Corning, #354234) and 100 uL of volume was injected in the flanks of each mouse. Tumors were measured every other day using digital vernier caliper until the volume reached […]. At this point, they were sacrificed with CO2 and posterior cervical disruption. Tumors were isolated and frozen in -80°C for future analysis. For volume calculation, we used the formula V = ((LxW^2))/(2) [formula] in mm^3, were V = tumor volume, W = tumor width and L = tumor length.
To inhibit Mitochondrial Complex I in vivo, we employed IACS-010759 (Selleckchem, #S8731), a small-molecule inhibitor of complex I. IACS was dissolved in DMSO at a 10% concentration and then prepared for administration at 0.5% in Methyl cellulose (Sigma, #M0262). Each mouse received a dose of 10 mg/kg for five consecutive days via oral gavage.
We propose that sensitivity to OXPHOS inhibitors can be, at least in part, mediated by combined expression of the NADPH-producing enzymes G6PD and ME1. To test this hypothesis […], we correlated protein expression of G6PD and ME1 for hundreds of cell lines. […]

## N[C@@H](CCC(=O)N[C@@H](CS)C(=O)NCC(=O)O)C(=O)O [GSH]
143B cells
  cell death phenotype: rescued

## Antimycin A
143B cell lines; G6PD KO 143B cells, after 3 days of treatment
  cell viability: sensitive
143B cell lines; KO cells for GFPT1, PHGDH or MPC1, after 3 days of treatment
  survival or proliferation: no differences

## Cc1nc(-c2nc(-c3ccc(OC(F)(F)F)cc3)no2)nn1Cc1cccc(N2CCC(S(C)(=O)=O)CC2)c1 [IACS-010759]
Colo320 cells; Colo320 cells ectopically expressing ME1
  effect on tumor size: completely lost
Colo320 cells; Colo320 cells subcutaneous in nude mice, 10 mg/kg oral gavage
  tumor size: prominently reduced
